The text below walks through data of PMC7823470, “Arabidopsis Plant Natriuretic Peptide Is a Novel Interactor of Rubisco Activase” (Life, 2020).

One test has as its target T1, recombinant RCA (rRCA) (Arabidopsis thaliana, UniProt P10896).
T1 construct: made in house; host or cells: E. coli BL21 (DE3) One Shot
Kind of test: biochemical. Type of test: binding. As to the method: SPR experiments were performed at 20 °C on a Biacore T100 instrument (GE Healthcare LifeSciences) with the use of Series S CM5 […] sensor chips as previously described. Data were acquired with Biacore T100 control software (version 2.0.2, GE Healthcare LifeSciences, Chicago, IL, USA). Kinetic analyses were performed at the flow of 100 μL min^−1 with pAtPNP-A (at 3.78 μM and consecutive two-fold dilutions; 11 injections included) […], whereas recombinant His-tagged RCA was used as […] immobilized on the active surface of the series S CM5 sensor chip with amine coupling kit. The surface was regenerated with glycine solution, pH 2.0 (GE Healthcare LifeSciences). The final sensorgram was generated with Scrubber (BioLogic Software Pty Ltd., Campbell, Australia).
In both analyses the ligand was immobilized at the same levels, analytes were injected at the same concentration and conditions of runs kept constant.

The target of test [1] is T2, purified recombinant N-terminally His-tagged rubisco activase (rRCA) (Arabidopsis thaliana, UniProt P10896 59-474).
T2 construct: Rubisco activase (RCA), A. thaliana, At2g39730; also called recombinant RCA; source: E. coli BL21 (DE3) One Shot, purified (Ni-NTA beads, HisTrap HP column); not shown: His6, N-terminal, kept
T2 sequence (looked up): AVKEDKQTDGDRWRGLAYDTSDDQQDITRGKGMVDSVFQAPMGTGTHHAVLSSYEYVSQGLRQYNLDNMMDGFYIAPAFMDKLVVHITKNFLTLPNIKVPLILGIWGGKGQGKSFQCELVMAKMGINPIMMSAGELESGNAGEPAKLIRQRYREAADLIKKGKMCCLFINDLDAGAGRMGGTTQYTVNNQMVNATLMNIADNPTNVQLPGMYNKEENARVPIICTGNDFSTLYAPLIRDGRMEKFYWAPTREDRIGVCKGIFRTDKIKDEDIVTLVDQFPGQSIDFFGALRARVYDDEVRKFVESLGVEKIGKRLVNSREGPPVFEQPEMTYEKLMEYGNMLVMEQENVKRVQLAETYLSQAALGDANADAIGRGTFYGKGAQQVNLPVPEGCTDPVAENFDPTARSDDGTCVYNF
Description: SPR; kinetic analysis: His-tagged rRCA immobilised by amine coupling on a Series S CM5 chip, pAtPNP-A injected at 3.78 μM and consecutive two-fold dilutions (11 injections), flow 100 μL/min, regeneration with glycine pH 2.0; Biacore T100, 20 °C. The following applies: both partners purified. (In general: SPR reads the build-up and loss of mass on a sensor chip optically.)

Test [2] deals with T2, purified recombinant N-terminally …. The description is as above. The following applies: both partners purified. This is another data set of the same source.

Entries after “also recorded” stand apart in the source; their conditions may differ. Bridge positions count the residues as written; N and C are the ends. Ends that are not written are not given here. Peptide text beside a SMILES is read from it. * marks the point of attachment. Biotin = O=C1N[C@H]2[C@H](CS[C@H]2CCCCC(=O)*)N1

`CC(C)C[C@@H]1NC(=O)[C@H](CC(N)=O)NC(=O)[C@H](CC(N)=O)NC(=O)[C@H](CCCCN)NC(=O)[C@H](C(C)C)NC(=O)CNC(=O)[C@H](C(C)C)NC(=O)[C@H](C(C)C)NC(=O)[C@H](CC(C)C)NC(=O)[C@H]([C@@H](C)O)NC(=O)[C@H](CCC(=O)O)NC(=O)[C@H](CCCNC(=N)N)NC(=O)[C@H](CCC(N)=O)NC(=O)[C@H]([C@@H](C)O)NC(=O)CNC(=O)[C@H](Cc2ccc(O)cc2)NC(=O)[C@@H](NC(=O)[C@H](C)NC(=O)[C@H](CO)NC(=O)[C@H](CCCNC(=N)N)NC(=O)[C@@H](NC(=O)[C@H](Cc2ccc(O)cc2)NC(=O)[C@@H]2CCCN2C(=O)[C@@H]2CCCN2C(=O)[C@H](CC(=O)O)NC(=O)[C@H](Cc2ccc(O)cc2)NC(=O)[C@H](Cc2ccc(O)cc2)NC(=O)[C@@H](NC(=O)[C@H](C)NC(=O)CCCC[C@@H]2SC[C@@H]3NC(=O)N[C@@H]32)C(C)C)[C@@H](C)O)CSSC[C@@H](C(=O)NCC(=O)N[C@@H](CCCNC(=N)N)C(=O)N[C@@H](CCCNC(=N)N)C(=O)N[C@@H](Cc2ccc(O)cc2)C(=O)O)NC(=O)[C@H](C)NC(=O)[C@H](CCCNC(=N)N)NC(=O)CNC(=O)[C@H](CC(N)=O)NC(=O)[C@H](CCC(N)=O)NC(=O)[C@H](Cc2c[nH]c3ccccc23)NC1=O` [pAtPNP-A] (Biotin-AVYYDPPYTRSACYGTQRETLVVGVKNNLWQNGRACGRRY-OH; disulfide 13-36): the “dissociation constant, range in words” value on recombinant RCA (rRCA) is given as “sub-micromolar range; also recorded: nanomolar range”. Moreover, the kon at recombinant RCA (rRCA) (read-out: ka (±SE), association rate constant) amounted to 16300 M⁻¹ s⁻¹. Also, the koff on recombinant RCA (rRCA) (read-out: kd (±SE), dissociation rate constant) was 0.000852 s⁻¹.

B1: pAtPNP-A, N-terminally biotinylated AtPNP-A(33–66) peptide containing the active region of AtPNP-A (peptide, UniProt Q9ZV52 33-66, looked up)
peptide: Biotin-YDPPYTRSACYGTQRETLVVGVKNNLWQNGRACG
modifications: disulfide 10-33 (inferred)
notes: AtPNP-A (plant natriuretic peptide A), A. thaliana, At2g18660, residues 33-66 (active region); Peptides were bought with or without the N-terminal biotin tag; also called biologically active fragment of AtPNP-A; source: synthetic peptide, bought: GenScript (purity at least 95%, HPLC)
As a reminder, the Kd is the equilibrium constant for the complex coming apart. For the molecule B1, the Kd in test [1] stood at 52.3 nM; in test [2], 53 nM.
